How the values were obtained:
[1] = system: 32D cl 3 mouse hematopoietic progenitor cell line; assay: Irradiation survival curves of 32D cl 3 cells with JP4-039 (Example 10); assay type: cell-based; settings: 10 μM, control 1.29
Procedure: Irradiation survival curves were performed on cells from the 32D cl 3 mouse hematopoietic progenitor cell line, incubated in 10 μM JP4-039 for 1 hour before irradiation, or plated in methycellulose containing 10 μM JP4-030 after irradiation. Cells were irradiated from 0 to 8 Gy, plated in 0.8% methycellulose containing media, and incubated for 7 days at 37° C. Colonies of greater than 50 cells were counted and data analyzed by linear quadratic and single-hit, multi-target models.

rat ileal mucosa = assay: Intestinal mucosal permeability assay (FD4) after hemorrhagic shock; assay type: in vivo; settings: intraluminal
Procedure: Intestinal mucosal permeability assay. Animals were allowed access to water but not food for 24 h prior to the experiment in order to decrease the volume of intestinal contents. The rats were instrumented as described above. A midline laparotomy was performed and the small intestine was exteriorized from the duodenojejunal junction to the ileocecal valve. A small incision was made on the antimesenteric aspect of the proximal small intestine and saline solution (1.5 ml) was injected. The bowel was ligated proximally and distally to the incision with 4-0 silk (Look, Reading, Pa.).
The small intestine was compressed gently in aboral direction along its length to displace intestinal contents into the colon. Starting 5 cm from the ileocecal valve, the ileum was partitioned into six contiguous water-tight segments. […]
The remaining four other segments were injected with solutions containing either 4-hydroxy-2,2,6,6-tetramethylpiperidine-N-oxyl (TEMPOL) or one of the Gramicidin S-based compounds. Four different final concentrations of TEMPOL in normal saline were evaluated: 0.1, 1, 5 and 20 mM. […]
Fluorescence of FD4 in the solution inside the beaker and within each gut sac was measured using a fluorescence spectrophotometer (LS-50, Perkin-Elmer, Palo Alto, Calif.) at an excitation wavelength of 492 nm and an emission wavelength of 515 nm. […]

caspases 3 and 7 = assay: Caspases 3 and 7 activity in gut mucosa after hemorrhagic shock; assay type: in vivo, rat; settings: 10 μM intraluminal, vs vehicle
Procedure: Caspases 3 and 7 activity assay. Caspases 3 and 7 activity was measured using a commercially available assay kit, Caspase GIo™ 3/7 assay kit (Promega, Madison, Wis.). Briefly, 50 μl of rat gut mucosa homogenate (20 jug protein) was mixed with 50 μl of Caspase-Glo™ reagent and incubated at room temperature for 1 hour. At the end of incubation period, the luminescence of each sample was measured using a plate reading chemiluminometer (ML1000, Dynatech Laboratories, Horsham, Pa.). Activity of caspases 3 and 7 was expressed as luminescence intensity (arbitrary units per mg protein). Protein concentrations were determined using the BioRad assay (Bio-Rad Laboratories, Inc., Hercules, Calif.).
In the subsequent series of in vivo studies, the affect of intraluminal XJB-5-131 on hemorrhage-induced peroxidation of phospholipids in intestinal mucosa was examined. […] In a preferred embodiment, 0.3 mL of test solution filled the lumen of each ileal compartment.
After two hours of HS, samples of ileal mucosa from the gut sacs filled with the vehicle and XJB-5-131 were obtained and compared with ileal mucosa of normal MECs. All samples were assayed with caspase 3 or caspase 7 activity as well as the peroxidation of phosphatidylcholine (“PC”), phosphatidylethanolamine (“PE”), phosphatidylserine (“PS”), and cardiolipin (“CL”), summarized in FIG. 7.

## CC(C)C[C@@H](/C=C/CC(=O)NC1CC(C)(C)N([O])C(C)(C)C1)NC(=O)OC(C)(C)C [JP4-039, TEMPO-4-yl-(S,E)-5-(tert-butoxycarbonylamino)-7-methyloct-3-enamide]
[1]; drug added after irradiation
  ñ (shoulder on the survival curve): 4.55±0.47
[1]; drug added before irradiation
  ñ (shoulder on the survival curve): 5.25±0.84

## CC(C)C[C@@H](/C=C/[C@H](Cc1ccccc1)C(=O)N1CCC[C@H]1C(=O)N[C@H](C(=O)N[C@@H](CCCNC(=O)OCc1ccccc1)C(=O)NC1CC(C)(C)N([O])C(C)(C)C1)C(C)C)NC(=O)OC(C)(C)C [XJB-5-131]
Rat ileal mucosa
  hemorrhagic shock-induced mucosal hyperpermeability relative to control: approximately 60 % of the control value
  potency relative to TEMPOL: ~1000 fold
Caspases 3 and 7
  caspase 3 and 7 activity after hemorrhagic shock: significantly decreased
